Series [1] in a line: Porosity (BJH pore volume, pore size; nitrogen adsorption, Micromeritics TriStar 3000). It is filed as physicochemical. As to conditions: for Pore Size, Adsorption pore diameter (nm): BJH adsorption; for Pore volume, Adsorption (cumulative) (cm^3/g) / Surface Area, Adsorption (cumulative) (m^2/g): BJH adsorption cumulative; for Pore Size, Desorption pore diameter (nm): BJH desorption; for Pore volume, Desorption (cumulative) (cm^3/g) / Surface Area, Desorption (cumulative) (m^2/g): BJH desorption cumulative; for Pore volume, Total-<6.4182 nM (cm^3/g): pores <6.4182 nM. From the text: (§1) By “relatively greater” it is meant that if the processes of the '782 patent and those of the present invention were run under generally identical conditions but with, for example, ammonium carbonate or bicarbonate used instead of sodium carbonate, the surface area, as measured by BET or otherwise, of the LCH or lanthanum oxycarbonates of the present invention would be even higher than that resulting from the practice of the '782 patent. The ammonium carbonate process of the present invention should yield BET surface areas (SA) in the 1 to 100 m^2/g range for LCH. […] To this end, as used herein “relatively greater BET surface area” refers to the greater BET surface area of the LDOC compound of the present invention when compared to the respective compound in U.S. Pat. No. 7,588,782 when made using similar ingredients, and under similar conditions but using the process described in that patent. As noted above, both processes are capable of producing very fine particles/high surface area. Again without wishing to be bound by any particular theory of operation, it may be that the greater porosity of the materials resulting from the present invention may effectively increase the overall surface area (or more reactive surfaces) allowing for, inter alia, improved binding kinetics. This is predicated on the porosity of individual or primary particles, not aggregates. Thus, it is believed that the primary particles of the invention provide relatively greater porosity than would be measured for particles made in accordance with the '782 patent. […] Furthermore, “porosity” as used herein means cumulative adsorption pore volume determined using a static pressure surface area analyzer with nitrogen as the adsorbate and calculating the pore size by The Barrett, Joyner, and Halenda (BJH) method (Barrett E. P., Loyner L. G. and Halenda P. P., The determination of pore volume and area distributions in porous substances. I. Computations from nitrogen isotherms, J. Am. Chem. Soc. 73 (1951) pp. 373-380).
“Pore volume” as used herein refers to the cumulative adsorption pore volume. In one embodiment, the cumulative adsorption pore volume of the LDOC of the present invention is at least 0.015 cm^3/g. In another embodiment, it is at least 0.020 cm^3/g.
The porosity of the LDOC compound referred to herein as RZB-014 was analyzed and compared to that of the LDH and LDOC compounds of the '782 patent discussed above on a Micromeritics TriStar 3000 static pressure surface area analyzer using nitrogen as the adsorbate. The Barrett, Joyner, and Halenda (BJH) method was used to calculate pore size. This method uses the Kelvin model of pore filling and applies only to the mesopore (internal width between approximately 2 and 50 nm) and small macropore size range (internal width between 50 nm and approximately 300 nm).

Another series is described as follows: BET surface area. It is filed as physicochemical. Conditions: nitrogen adsorbate.
From the text: as §1
As contemplated herein, BET surface area of the lanthanum compounds disclosed herein may be determined as provided in U.S. Pat. No. 7,588,782.

The results in this text go back to patent publication US10350240B2, “Lanthanum carbonate hydroxide, lanthanum oxycarbonate and methods of their manufacture and use” (Spectrum Pharmaceuticals, Inc., priority 2010, dated 2019).

As to `O=C([O-])[O-].[La+3].[La+3].[O-2].[O-2]` [RZB-14 (264314)], in series [1], the “Pore Size, Average pore width (nm)” value is listed as 3.404 nm; the “Pore Size, Adsorption pore diameter (nm)” value is 5.7595 nm; the “Pore volume, Adsorption (cumulative) (cm^3/g)” value is given as 0.0499 cm^3/g; the “Surface Area, Adsorption (cumulative) (m^2/g)” value was 34.6533 m^2/g. In addition, in series [1], the “Pore Size, Desorption pore diameter (nm)” value is on record as 6.0183 nm; the “Pore volume, Desorption (cumulative) (cm^3/g)” value was 0.05346 cm^3/g; the “Surface Area, Desorption (cumulative) (m^2/g)” value is recorded as 35.5324 m^2/g; the “Pore volume, Total-<6.4182 nM (cm^3/g)” value came out at 0.02724 cm^3/g. In addition, the “Surface Area, BET Surface area (m^2/g)” value in the series “BET surface area” worked out at 32.0039 m^2/g.
As for `O=C([O-])[O-].[La+3].[OH-]` [RZB-011, lanthanum carbonate hydroxide], the pore diameter comparison entry in series [1] is on record as “not much difference in the values of pore diameter”.
Turning to `O=C([O-])[O-].[La+3].[La+3].[O-2].[O-2]` [RZB-14 (264317)], in series [1], the “Pore Size, Average pore width (nm)” value was 4.699 nm; the “Pore Size, Adsorption pore diameter (nm)” value came to 5.5584 nm; the “Pore volume, Adsorption (cumulative) (cm^3/g)” value came to 0.03991 cm^3/g; the “Surface Area, Adsorption (cumulative) (m^2/g)” value is on record as 28.7342 m^2/g. For the same compound, in series [1], the “Pore Size, Desorption pore diameter (nm)” value is listed as 4.8008 nm; the “Pore volume, Desorption (cumulative) (cm^3/g)” value turned out to be 0.04068 cm^3/g; the “Surface Area, Desorption (cumulative) (m^2/g)” value was 33.8946 m^2/g; the “Pore volume, Total-<6.4182 nM (cm^3/g)” value turned out to be 0.02973 cm^3/g. Further, the “Surface Area, BET Surface area (m^2/g)” value in the series “BET surface area” stood at 25.3032 m^2/g.
